For one test, the system named is E coli. Briefly: MIC assay, E coli. The test is classed as cell-based.
The test system of another test is E. faecalis. Description: MIC assay, E. faecalis. The test is classed as cell-based, Enterococcus faecalis.
A further test concerns S. aureus. Description: MIC assay, S. aureus. It is filed as cell-based, Staphylococcus aureus.
A further test has as its system H. flu. The test is classed as cell-based, H. influenza. Conditions: H. flu.
Another test has as its system S. pneumo. Briefly: MIC assay, S. pneumo. The test is classed as cell-based, Streptococcus pneumoniae.

Values after ≈ are worked out from the molar mass of the structure shown.

With `COC1C=COC2(C)Oc3c(C)c(O)c4c(=O)c(c5oc6cc(N7CCC(N(C)C)C7)cc(O)c6nc-5c4c3C2=O)NC(=O)C(C)=CC=CC(C)C(O)C(C)C(O)C(C)C(OC(C)=O)C1C` [Compound 75, 3′-hydroxy-5′-[(3R)—N,N-dimethylamino-1-pyrrolidinyl]benzoxazinorifamycin], in the test with E coli, the “MIC (μg/mL) E coli” value stood at 4 µg/mL (≈ 4.38 µM). The “MIC (μg/mL) E. faecalis” value in the test with E. faecalis is 0.12 µg/mL (≈ 0.131 µM). Moreover, the “MIC (μg/mL) S. aureus” value against S. aureus came out at 0.002 µg/mL (≈ 0.00219 µM). Moreover, in the test with H. flu, the “MIC (μg/mL) H. flu” value was 0.25 µg/mL (≈ 0.274 µM). The “MIC (μg/mL) S. pneumo.” value against S. pneumo. was found to be 0.00012 µg/mL (≈ 0.000131 µM).

As for `CO[C@H]1/C=C/O[C@@]2(C)Oc3c(C)c(O)c4c(=O)c(c5oc6cc(N7CCC(NC(=O)OCC(C)C)CC7)cc(O)c6nc-5c4c3C2=O)NC(=O)/C(C)=C\C=C\[C@H](C)[C@H](O)[C@@H](C)[C@@H](O)[C@@H](C)[C@H](OC(C)=O)[C@@H]1C` [Compound 13], the “MIC (μg/mL) E coli” value against E coli is 4 µg/mL (≈ 4 µM). In addition, the “MIC (μg/mL) E. faecalis” value in the test with E. faecalis was 0.5 µg/mL (≈ 0.5 µM). Besides, the “MIC (μg/mL) S. aureus” value with S. aureus was 0.008 µg/mL (≈ 0.00801 µM). Besides, the “MIC (μg/mL) H. flu” value with H. flu is 2 µg/mL (≈ 2 µM). Moreover, in the test on S. pneumo., the “MIC (μg/mL) S. pneumo.” value amounted to 0.00012 µg/mL (≈ 0.00012 µM).

For `COC1C=COC2(C)Oc3c(C)c(O)c4c(=O)c(c5n(C)c6cc(N7CC(C)NC(C)C7)ccc6nc-5c4c3C2=O)NC(=O)C(C)=CC=CC(C)C(O)C(C)C(O)C(C)C(O)C1C` (stereo not drawn) [Compound 94], the “MIC (μg/mL) E coli” value with E coli is above 8 µg/mL. For the same molecule, in the test on E. faecalis, the “MIC (μg/mL) E. faecalis” value was above 8 µg/mL. For the same molecule, the “MIC (μg/mL) S. aureus” value in the test with S. aureus was 1 µg/mL (≈ 1.15 µM). Besides, the “MIC (μg/mL) H. flu” value against H. flu came out at 4 µg/mL (≈ 4.61 µM). The “MIC (μg/mL) S. pneumo.” value against S. pneumo. came to 2 µg/mL (≈ 2.3 µM).

For the molecule `COC1C=COC2(C)Oc3c(C)c(O)c4c(=O)c(c5oc6cc(N7CCC(CCO)CC7)cc(O)c6nc-5c4c3C2=O)NC(=O)C(C)=CC=CC(C)C(O)C(C)C(O)C(C)C(O)C1C` (stereo not drawn) [Compound 66, 25-O-deacetyl-3′-hydroxy-5′-[4-(2-hydroxyethyl)-1-piperidinyl]benzoxazinorifamycin], the “MIC (μg/mL) E coli” value against E coli worked out at 4 µg/mL (≈ 4.51 µM). Further, in the test with E. faecalis, the “MIC (μg/mL) E. faecalis” value turned out to be 0.12 µg/mL (≈ 0.135 µM). The “MIC (μg/mL) S. aureus” value against S. aureus is 0.004 µg/mL (≈ 0.00451 µM). For the same molecule, in the test on H. flu, the “MIC (μg/mL) H. flu” value stood at 0.12 µg/mL (≈ 0.135 µM). Moreover, the “MIC (μg/mL) S. pneumo.” value against S. pneumo. was determined as 0.0005 µg/mL (≈ 0.000564 µM).

With `COC1C=COC2(C)Oc3c(C)c(O)c4c(=O)c(c5oc6cc(N7CC(C)OC(C)C7)cc(O)c6nc-5c4c3C2=O)NC(=O)C(C)=CC=CC(C)C(O)C(C)C(O)C(C)C(O)C1C` (stereo not drawn) [Compound 114], in the test on E coli, the “MIC (μg/mL) E coli” value was determined as 8 µg/mL (≈ 9.17 µM). Besides, the “MIC (μg/mL) E. faecalis” value in the test with E. faecalis was 0.25 µg/mL (≈ 0.287 µM). Moreover, the “MIC (μg/mL) S. aureus” value in the test with S. aureus stood at 0.015 µg/mL (≈ 0.0172 µM). In addition, in the test with H. flu, the “MIC (μg/mL) H. flu” value came to 0.25 µg/mL (≈ 0.287 µM). Besides, the “MIC (μg/mL) S. pneumo.” value with S. pneumo. turned out to be 0.002 µg/mL (≈ 0.00229 µM).

As to `CCC1CN(c2cc(O)c3nc4c5c6c7c(C)c(O)c5c(=O)c(c-4oc3c2)NC(=O)C(C)=CC=CC(C)C(O)C(C)C(O)C(C)C(O)C(C)C(OC)C=COC(C)(O7)C6=O)CC(C)N1` (stereo not drawn) [Compound 90], the “MIC (μg/mL) E coli” value in the test with E coli stood at 4 µg/mL (≈ 4.52 µM). Further, the “MIC (μg/mL) E. faecalis” value in the test with E. faecalis was 0.5 µg/mL (≈ 0.565 µM). Also, in the test with S. aureus, the “MIC (μg/mL) S. aureus” value came out at 0.004 µg/mL (≈ 0.00452 µM). Moreover, the “MIC (μg/mL) H. flu” value in the test on H. flu is 0.25 µg/mL (≈ 0.282 µM). Further, in the test on S. pneumo., the “MIC (μg/mL) S. pneumo.” value was found to be 0.00012 µg/mL (≈ 0.000136 µM).

Regarding `COC1C=COC2(C)Oc3c(C)c(O)c4c(=O)c(c5oc6cc(N7CCC(F)C7)ccc6nc-5c4c3C2=O)NC(=O)C(C)=CC=CC(C)C(O)C(C)C(O)C(C)C(O)C1C` (stereo not drawn) [Compound 119], the “MIC (μg/mL) E coli” value against E coli stood at 4 µg/mL (≈ 4.82 µM). For the same molecule, in the test on E. faecalis, the “MIC (μg/mL) E. faecalis” value was 0.5 µg/mL (≈ 0.602 µM). The “MIC (μg/mL) S. aureus” value in the test with S. aureus stood at 0.03 µg/mL (≈ 0.0361 µM). Also, in the test with H. flu, the “MIC (μg/mL) H. flu” value came out at 0.06 µg/mL (≈ 0.0723 µM). In addition, the “MIC (μg/mL) S. pneumo.” value against S. pneumo. came to 0.015 µg/mL (≈ 0.0181 µM).

For `CO[C@H]1/C=C/O[C@@]2(C)Oc3c(C)c(O)c4c(=O)c(c5oc6cc(N7C[C@H]8CCCN[C@H]8C7)cc(O)c6nc-5c4c3C2=O)NC(=O)/C(C)=C\C=C\[C@H](C)[C@H](O)[C@@H](C)[C@@H](O)[C@@H](C)[C@H](OC(C)=O)[C@@H]1C` [Compound 12, 3′-hydroxy-5′-[(4aR,7aR)-octahydro-6H-pyrrolo[3,4-b]pyridin-6-yl]benzoxazinorifamycin], the “MIC (μg/mL) E coli” value in the test with E coli turned out to be 8 µg/mL (≈ 8.65 µM). The “MIC (μg/mL) E. faecalis” value with E. faecalis stood at 0.12 µg/mL (≈ 0.13 µM). The “MIC (μg/mL) S. aureus” value with S. aureus was found to be 0.004 µg/mL (≈ 0.00432 µM). Moreover, the “MIC (μg/mL) H. flu” value against H. flu was determined as 0.25 µg/mL (≈ 0.27 µM). The “MIC (μg/mL) S. pneumo.” value with S. pneumo. was found to be 0.00025 µg/mL (≈ 0.00027 µM).

Take `CO[C@H]1/C=C/O[C@@]2(C)Oc3c(C)c(O)c4c(=O)c(c5oc6cc(N7CCC(N8CCOCC8)CC7)cc(O)c6nc-5c4c3C2=O)NC(=O)/C(C)=C\C=C\[C@H](C)[C@H](O)[C@@H](C)[C@@H](O)[C@@H](C)[C@H](OC(C)=O)[C@@H]1C` [Compound 9, 3′-hydroxy-5′-(4-morpholinyl-1-piperidinyl)benzoxazinorifamycin]: the “MIC (μg/mL) E coli” value against E coli turned out to be 8 µg/mL (≈ 8.26 µM). For the same molecule, the “MIC (μg/mL) E. faecalis” value against E. faecalis came to 2 µg/mL (≈ 2.06 µM). Besides, in the test with S. aureus, the “MIC (μg/mL) S. aureus” value is 0.015 µg/mL (≈ 0.0155 µM). Besides, the “MIC (μg/mL) H. flu” value in the test with H. flu was 2 µg/mL (≈ 2.06 µM). The “MIC (μg/mL) S. pneumo.” value against S. pneumo. was found to be 0.001 µg/mL (≈ 0.00103 µM).

The values are drawn from US7271165B2, “Rifamycin analogs and uses thereof” (priority 2003, dated 2007).
